Measurements published in ChEMBL document CHEMBL1153246, “Discovery of novel taspine derivatives as antiangiogenic agents” (Bioorg Med Chem Lett, 2010).
Values after ≈ are worked out from the molar mass of the structure shown.

How the values were obtained:
[1] = test system: Caco-2; assay: Antiproliferative activity against human Caco-2 cells; type: functional, cell-based
[2] = Polar surface area; conditions: pH 7.4
[3] = test system: A549; assay: Antiproliferative activity against human A549 cells; type: functional, cell-based
[4] = Dissociation constant, pKa; conditions: pH 7.4
[5] = Ratio of solubility for drug to taspine; type: physicochemical
[6] = Solubility of the compound
[7] = test system: ECV-304; assay: Antiproliferative activity against human ECV304 cells; type: functional, cell-based
[8] = test system: ECV-304; assay: Ratio of IC50 drug to IC50 taspine against human ECV304 cells; type: functional
[9] = test system: Caco-2; assay: Ratio of IC50 drug to IC50 taspine against human Caco-2 cells; type: functional

COC(=O)c1cc(OC(=O)c2ccc(OC)c(O)c2)c(OC)cc1CCN(C)C
IC50 [1]: 11000 nM | PSA [2]: 94.5 Å2 | IC50 [3]: 453 nM | pKa [4]: 8.75 | Ratio [5]: 13 | solubility [6]: 140 µg/mL (≈ 347 µM)

COC(=O)c1cc(OC(=O)c2ccc(OC)c(O)c2)c(OC)cc1CCNc1ccc(F)c(Cl)c1
PSA [2]: 103 Å2 | IC50 [7]: 61 nM | IC50 [3]: 180 nM | pKa [4]: 3.65 | solubility [6]: 61 µg/mL (≈ 121 µM)

COC(=O)c1ccc(OC)c(OC(=O)c2cc(O)c(OC)cc2CCN(C)C)c1
IC50 [1]: 3100 nM | PSA [2]: 94.5 Å2 | IC50 [3]: 111 nM | pKa [4]: 8.57 | solubility [6]: 130 µg/mL (≈ 322 µM)

COC(=O)c1cc(OC(=O)c2ccc(OC)c(O)c2)c(OC)cc1CCN1CCOCC1
Ratio IC50 [8]: 10 | IC50 [1]: 52.5 nM | Ratio IC50 [9]: 3 | PSA [2]: 104 Å2 | IC50 [7]: 2.67 nM | IC50 [3]: 158 nM | pKa [4]: 7.28 | Ratio [5]: 13 | solubility [6]: 270 µg/mL (≈ 606 µM)

COc1ccc2c(=O)oc3c(OC)cc(CCN(C)C)c4c(=O)oc1c2c34 [TASPINE]
IC50 [1]: 153 nM | PSA [2]: 74.3 Å2 | IC50 [7]: 22.3 nM | IC50 [3]: 4.18 nM | pKa [4]: 8.21 | solubility [6]: 21 µg/mL (≈ 56.9 µM)
